In the Deep4Chem optical property database:
Each block holds one molecule with its values, some of them ahead of it.

Assay: photoluminescence quantum yield (fraction); solvent given as SMILES
[1] = in c1ccc2c(c1)c1ccccc1n2-c1ccc(-c2ccc(-n3c4ccccc4c4ccccc43)cc2)cc1
[2] = in O=P(c1ccccc1)(c1ccccc1)c1ccccc1Oc1ccccc1P(=O)(c1ccccc1)c1ccccc1

SMILES: N#Cc1cc(-n2c3ccccc3c3ccccc32)c(-n2c3ccccc3c3ccccc32)cc1C#N
- photoluminescence quantum yield (in C1CCOC1): 0.125
- photoluminescence quantum yield (in Cc1ccccc1): 0.465
- photoluminescence quantum yield [1]: 0.6

SMILES: CCCCCCOc1ccc(N(c2ccc(OCCCCCC)cc2)c2ccc(-c3sc(-c4ccc(N(c5ccc(OCCCCCC)cc5)c5ccc(OCCCCCC)cc5)cc4)c4nc(-c5ccc(OC)cc5)c(-c5ccc(OC)cc5)nc34)cc2)cc1
- photoluminescence quantum yield (in CN(C)C=O): 0.0287
- photoluminescence quantum yield (in ClC(Cl)Cl): 0.014

SMILES: N#Cc1ccc(/C=C/c2ccc(C=C(c3ccccc3)c3ccccc3)cc2)cc1
- photoluminescence quantum yield (in C1CCOC1): 0.166

SMILES: CCn1c2ccccc2c2cc(C#Cc3cc(C#Cc4ccc5c(c4)c4ccccc4n5CC)nc(N4CCCCC4)n3)ccc21
- photoluminescence quantum yield (in C1CCOC1): 0.21
- photoluminescence quantum yield (in CCOC(C)=O): 0.17
- photoluminescence quantum yield (in CN(C)C=O): 0.15
- photoluminescence quantum yield (in Cc1ccccc1): 0.21
- photoluminescence quantum yield (in ClCCl): 0.2

SMILES: CC(=O)c1nc(-c2ccc(N(c3ccccc3)c3ccccc3)cc2)oc1C
- photoluminescence quantum yield (in CC#N): 0.486
- photoluminescence quantum yield (in CCO): 0.264
- photoluminescence quantum yield (in CCOC(C)=O): 0.659
- photoluminescence quantum yield (in CCOCC): 0.886
- photoluminescence quantum yield (in ClCCl): 0.972

SMILES: COC(=O)/C=C/C1=CC2=C(c3c(C)cc(C)cc3C)c3cc(/C=C/C(=O)OC)cn3[B-](F)(F)[N+]2=C1
- photoluminescence quantum yield (in ClCCl): 0.36

SMILES: O=c1cc(-c2ccccc2)oc(-c2ccc(-c3nc4ccccn4c3NC3CCCCC3)cc2)c1
- photoluminescence quantum yield (in ClCCl): 0.028

SMILES: CC1=N/C(=C\c2cc(N(C)C)ccc2C#N)C(=O)N1C
- photoluminescence quantum yield (in C1CCOC1): 0.19
- photoluminescence quantum yield (in CC#N): 0.07
- photoluminescence quantum yield (in CCCCCC): 0.6

SMILES: CC(C)(C)c1ccc2c(c1)c1cc(C(C)(C)C)ccc1n2-c1ccc(-n2c3ccc(C(C)(C)C)cc3c3cc(C(C)(C)C)ccc32)c(-c2nccnc2C#N)c1
- photoluminescence quantum yield (in Cc1ccccc1): 0.05
- photoluminescence quantum yield (in c1cc(-n2c3ccccc3c3ccccc32)cc(-n2c3ccccc3c3ccccc32)c1): 0.44

SMILES: COc1ccc(-c2c3ccccc3c(C#Cc3ccccc3)c3ccccc23)cc1
- photoluminescence quantum yield (in ClCCl): 0.51

SMILES: COC(=O)[C@]12N=N[C@](C(=O)OC)(C3C4C5C4C5C31)C1C3C4C3C4C12 (some centres undefined)
- photoluminescence quantum yield (in CC#N): 0.039

SMILES: CCC1=C(C)C2=C(C)c3cc(I)cn3[B-](F)(F)[N+]2=C1C
- photoluminescence quantum yield (in C1CCCCC1): 0.13
- photoluminescence quantum yield (in CC(C)=O): 0.087
- photoluminescence quantum yield (in CCO): 0.095
- photoluminescence quantum yield (in CCOC(C)=O): 0.097
- photoluminescence quantum yield (in CO): 0.086
- photoluminescence quantum yield (in OCC(F)(F)F): 0.075

SMILES: CCCCCCCCCCCCN1C(=O)c2c(c3ccc4cc(-c5cccs5)c(OC)cc4c3c3c2ccc2cc(-c4cccs4)c(OC)cc23)C1=O
- photoluminescence quantum yield (in ClCCl): 0.216

SMILES: C[Si](C)(C)c1ccc2ccc3cccc4ccc1c2c34
- photoluminescence quantum yield (in CCCCCC): 0.23
- photoluminescence quantum yield (in CO): 0.22
- photoluminescence quantum yield (in ClCCl): 0.36

SMILES: O=Cc1cc(C=O)c2ccc3c(N4CCCCC4)cc(N4CCCCC4)c4ccc1c2c43
- photoluminescence quantum yield (in C1COCCO1): 0.92
- photoluminescence quantum yield (in CC#N): 0.88
- photoluminescence quantum yield (in CC(C)=O): 0.9
- photoluminescence quantum yield (in CCCCCC): 0.93
- photoluminescence quantum yield (in CCO): 0.87
- photoluminescence quantum yield (in CCOC(C)=O): 0.93
- photoluminescence quantum yield (in CO): 0.83
- photoluminescence quantum yield (in CS(C)=O): 0.75
- photoluminescence quantum yield (in Cc1ccccc1): 0.94
- photoluminescence quantum yield (in ClCCl): 0.91

SMILES: c1ccc(-p2c(-c3cccs3)cc3ccccc32)cc1 (centres undefined)
- photoluminescence quantum yield (in C1CCOC1): 0.07

SMILES: CCC/N=C/c1cc2ccc(N(C)C)cc2cc1OC
- photoluminescence quantum yield (in CS(C)=O): 0.61

SMILES: Cc1cc(N2c3ccccc3C(C)(C)c3ccccc32)ccc1-c1ncnc(-c2ccc(N3c4ccccc4C(C)(C)c4ccccc43)cc2C)c1C
- photoluminescence quantum yield [2]: 0.47

SMILES: Nc1cc([NH3+])cc(-c2nc3ccccc3s2)c1
- photoluminescence quantum yield (in O): 0.064

SMILES: CCCCCCCCOc1ccc(C2=C(c3ccc(OCCCCCCCC)cc3)C(C)(C)c3ccccc32)cc1
- photoluminescence quantum yield (in C1CCCCC1): 0.11

SMILES: c1csc(-c2ccc(-c3ccc(-c4cccs4)s3)s2)c1
- photoluminescence quantum yield (in CCC(C)C): 0.27
- photoluminescence quantum yield (in ClCCl): 0.16

SMILES: N#Cc1c(C#N)c2cc(Cl)c(Cl)cc2c2cc(Cl)c(Cl)cc12
- photoluminescence quantum yield (in ClC(Cl)Cl): 0.01

SMILES: CN(C)c1ccc2nc3c(cc2c1)c(-c1ccccc1)nn3-c1ccccc1
- photoluminescence quantum yield (in C1CCCCC1): 0.84
- photoluminescence quantum yield (in C1CCOC1): 0.62
- photoluminescence quantum yield (in CC#N): 0.57
- photoluminescence quantum yield (in CC(C)=O): 0.58
- photoluminescence quantum yield (in CCCCCl): 0.64
- photoluminescence quantum yield (in CCCCOCCCC): 0.77
- photoluminescence quantum yield (in CN(C)C=O): 0.46

SMILES: C/C(=N\Nc1ccc(C#N)cc1)c1ccccn1
- photoluminescence quantum yield (in CO): 0.28

SMILES: COc1cc2sc3nc(-c4ccccc4OC)sc3c2cc1OC
- photoluminescence quantum yield (in CS(C)=O): 0.76

SMILES: CCOC(=O)c1ccc(C2=Cc3cc4ccccc4cc3P2(=O)c2ccccc2)cc1 (centres undefined)
- photoluminescence quantum yield (in ClCCl): 0.54

SMILES: CCCCC1(c2ccc(OC)cc2)Nc2ccccc2N=C1c1ccc(OC)cc1 (centres undefined)
- photoluminescence quantum yield (in ClC(Cl)Cl): 0.52

SMILES: Cc1ccc(C#Cc2ccc3ccc(=O)oc3c2)cc1
- photoluminescence quantum yield (in CC#N): 0.016

SMILES: CC1=CC(C)=[N+]2C1=C(C1=C3C(C)=CC(C)=[N+]3[B-](F)(F)n3c(C)cc(C)c31)c1c(C)cc(C)n1[B-]2(F)F
- photoluminescence quantum yield (in ClC(Cl)Cl): 0.31

SMILES: O=P1(c2ccccc2)c2cc(N3c4ccccc4Oc4ccccc43)ccc2-c2ccc(N3c4ccccc4Oc4ccccc43)cc21
- photoluminescence quantum yield (in Cc1ccccc1): 0.47
- photoluminescence quantum yield [1]: 0.41

SMILES: CC(C)c1cccc(C(C)C)c1N1C(=O)c2cccc3c(Oc4ccc(C(C)(C)C)cc4)ccc(c23)C1=O
- photoluminescence quantum yield (in ClCCl): 0.11

SMILES: COc1ccc(C(=O)NN2C3=C(CC4=C2CCCC4=O)C(=O)CCC3)cc1
- photoluminescence quantum yield (in CC#N): 0.59
- photoluminescence quantum yield (in CC(C)=O): 0.48
- photoluminescence quantum yield (in CCCCCO): 0.6
- photoluminescence quantum yield (in CO): 0.32
- photoluminescence quantum yield (in ClC(Cl)Cl): 0.57
- photoluminescence quantum yield (in ClCCl): 0.57

SMILES: N#Cc1ncc(-c2c3ccccc3c(-c3cnc(C#N)nc3)c3ccccc23)cn1
- photoluminescence quantum yield (in CCO): 0.05
- photoluminescence quantum yield (in ClCCl): 0.57

SMILES: COc1ccc(N(c2ccccc2)c2ccccc2)cc1
- photoluminescence quantum yield (in Cc1ccccc1): 0.03

SMILES: C[n+]1ccc(/C=C/c2ccc(N(c3ccccc3)c3ccc(/C=C/c4cc[n+](C)cc4)cc3)cc2)cc1
- photoluminescence quantum yield (in ClCCl): 0.64
- photoluminescence quantum yield (in O): 0.08
- photoluminescence quantum yield (in OCC(O)CO): 0.11

SMILES: Cc1ccc2c(c1)c1cc(C)ccc1n2-c1cc(-c2nc(-c3ccccc3)nc(-c3ccccc3)n2)cc(-n2c3ccc(C)cc3c3cc(C)ccc32)c1-n1c2ccc(C)cc2c2cc(C)ccc21
- photoluminescence quantum yield [2]: 1

Continued, values first:

- photoluminescence quantum yield (in ClCCl): 0.08
SMILES: CC(C)(C)c1ccc2c(c1)c1cc(C(C)(C)C)ccc1n2-c1ccc(N(c2ccc(-c3ccc(-c4ccc(-c5ccc(-c6ccc(N(c7ccc(-n8c9ccc(C(C)(C)C)cc9c9cc(C(C)(C)C)ccc98)cc7)c7ccc(-n8c9ccc(C(C)(C)C)cc9c9cc(C(C)(C)C)ccc98)cc7)cc6)s5)c5nsnc45)s3)cc2)c2ccc(-n3c4ccc(C(C)(C)C)cc4c4cc(C(C)(C)C)ccc43)cc2)cc1

- photoluminescence quantum yield (in ClCCl): 0.482
SMILES: CCn1c2cc(-c3ccc(-c4cccs4)s3)ccc2c2ccc(-c3ccc(-c4cccs4)s3)cc21

- photoluminescence quantum yield (in CO): 0.95
- photoluminescence quantum yield (in CS(C)=O): 1
- photoluminescence quantum yield (in ClC(Cl)Cl): 1
- photoluminescence quantum yield (in c1ccccc1): 0.84
SMILES: CCC1=C(C)C(=O)n2c1cc1c(CCC(=O)O)c(C)c(C)n1c2=O

- photoluminescence quantum yield (in CC#N): 0.69
SMILES: Cc1ccc(-c2ccc(/C=C/c3ccc(F)cc3)cn2)nc1

- photoluminescence quantum yield (in C1CCCCC1): 0.61
SMILES: COCCC1(CCOC)c2cc(-c3ccc(OC)cc3)ccc2-c2ccc(-c3ccc(OC)cc3)cc21

- photoluminescence quantum yield (in CC#N): 0.68
- photoluminescence quantum yield (in ClCCl): 0.83
SMILES: COC(=O)c1cc(=O)n(C)c2cc(-c3ccc4c(c3)OCCO4)sc12

- photoluminescence quantum yield (in CC#N): 0.04
SMILES: O=c1oc2ccccc2cc1/C=C/c1ccc([N+](=O)[O-])cc1

- photoluminescence quantum yield (in c1ccccc1): 0.198
SMILES: Cc1nc2c(ccc3ccccc32)oc1=O

- photoluminescence quantum yield (in ClC(Cl)Cl): 0.068
SMILES: c1ccc(-c2nc(-c3ccccc3)c(N(c3ccccc3)c3ccccc3)[se]2)cc1

- photoluminescence quantum yield (in ClCCl): 0.19
SMILES: N#Cc1ccc(-c2cnc3cccc(-c4ccccc4)n23)cc1

- photoluminescence quantum yield (in ClCCl): 0.23
SMILES: C(=C\c1ncnc2ccccc12)/c1ccc(-c2ccc(N(c3ccccc3)c3ccccc3)cc2)cc1

- photoluminescence quantum yield (in C1CCOC1): 0.56
SMILES: Cc1ccc(C2=C3C=CC([Se]c4ccccc4)=[N+]3[B-](F)(F)n3c([Se]c4ccccc4)ccc32)cc1

- photoluminescence quantum yield (in CC#N): 0.0051
SMILES: c1cc2c3c(cccc3c1)C(N1CCOCCOCCN(C3=Nc4cccc5cccc3c45)CCOCC1)=N2

- photoluminescence quantum yield (in ClCCl): 0.38
SMILES: CCN(CC)c1ccc2cc(-c3nc4cc(C(=O)Nc5ccccc5[N+](=O)[O-])ccc4o3)c(=O)oc2c1

- photoluminescence quantum yield (in ClCCl): 0.63
SMILES: Cc1nc(-c2ccccc2O)n2c1CCCC2

- photoluminescence quantum yield (in CC#N): 0.36
- photoluminescence quantum yield (in ClCCl): 0.25
SMILES: Cc1cc(-c2ccc(C(C)(C)C)cc2)cc(C)[o+]1

- photoluminescence quantum yield (in ClCCl): 0.27
SMILES: Cc1cn2cc(-c3ccc(-c4ccccc4)cc3)[n-][n+]2c1

- photoluminescence quantum yield (in C1COCCO1): 0
SMILES: CCC1=C(C2=C(C3=C(CC)S(=O)(=O)c4cc(-c5ccc(CO)cc5)ccc43)C(F)(F)C(F)(F)C2(F)F)c2ccc(-c3ccc(CO)cc3)cc2S1(=O)=O

- photoluminescence quantum yield (in ClCCl): 0.59
SMILES: c1ccc2c(c1)-c1ccccc1[Si]21c2ccccc2-c2cc3c(cc21)-c1ccccc1[Si]31c2ccccc2-c2ccccc21

- photoluminescence quantum yield (in CC#N): 0.27
SMILES: Cc1ccc(-c2ccc(/C=C/c3ccc(C#N)cc3)cn2)nc1

- photoluminescence quantum yield (in CS(C)=O): 0.82
SMILES: c1ccc(-c2nc3sc4ccccc4c3s2)nc1

- photoluminescence quantum yield (in C1CCOC1): 0.12
- photoluminescence quantum yield (in CS(C)=O): 0.1
- photoluminescence quantum yield (in ClCCl): 0.15
SMILES: COc1cc(OC)cc(C2=C3C(C)=C(I)C(/C=C/c4c[nH]c5ccccc45)=[N+]3[B-](F)(F)n3c(/C=C/c4c[nH]c5ccccc45)c(I)c(C)c32)c1

- photoluminescence quantum yield (in C1CCOC1): 0.048
- photoluminescence quantum yield (in ClC(Cl)Cl): 0.027
SMILES: CCCCCCCCc1ccc(-c2c3cc(-c4cc(CCCCCCCC)c(-c5ccc(-c6sc(/C=C7\SC(=S)N(CC)C7=O)cc6CCCCCCCC)s5)s4)sc3c(-c3ccc(CCCCCCCC)s3)c3cc(-c4cc(CCCCCCCC)c(-c5ccc(-c6sc(/C=C7\SC(=S)N(CC)C7=O)cc6CCCCCCCC)s5)s4)sc23)s1

- photoluminescence quantum yield (in ClCCl): 0.56
SMILES: c1ccc([Si]2(c3ccccc3)c3ccccc3-c3cc4c(cc32)-c2ccccc2[Si]4(c2ccccc2)c2ccccc2)cc1
